Assay [1] relates to normal human keratinocytes in monolayer. The assay is described as follows: hBD2 and hBD3 expression (RT-PCR, band intensity vs actin) in keratinocytes in monolayer. Particulars: 100 ng/ml, 16 hours. Type of assay: cell-based. The method, then:
The normal human keratinocytes are cultivated in monolayer on 96-wells culture plates, in a defined medium without serum and enriched with calcium (final concentration 1.7 mM).
At 80% of confluence, the cells are placed in contact with a chemical stress, i.e. molecules which mimic a microbial attack, such as TNFα (100 ng/ml) or IFNγ (100 ng/ml), for 16 hours. Keratinocytes which are non-stressed, i.e. which are not placed in contact with the chemical substances mimicking a microbial attack, are used in a model of reconstructed epidermis.
After 16 hours, the supernatants are collected and the cells are dry frozen at −80° C. after a rinsing with PBS.
The total RNAs are extracted with the aid of a 96-wells fluo extraction kit on silica columns and are determined on a 96-wells spectrophotometer at 260 and 280 nm. The RNAs are diluted at 5 ng/μl.
The one-step qualitative RT-PCR is carried out on 50 ng of RNA (initial) in 96 wells, on actin, hBD2 and hBD3. The primers are used at 0.5 μM and are from the literature: hBD2sense: 5′-[…]-3′; hBD2antisense: 5′-GGAGCCCJTlCTGMTC CGCA-3′ (Harder J. et al., A peptide antibiotic from human skin. Nature 1997; 387: 861); hBD3sense: 5′-[…]-3′, hBD3 antisense: 5′-[…] […]-3′; actin sense: 5′-[…]-3′, actin antisense: 5′-[…]lTTC-3′ (Harder J. et al., Isolation and characterization of hBD3, a novel human inducible peptide antibiotic. J. Biol. Chem. 2001; 276: 5707-5713).
The samples are placed in a thermocycler and following a common program of amplification: 50° C., 30 mins; 94° C., 2 mins; (94° C., 30 secs; 60° C., 30 sec; 68° C., 30 sec) 32 cycles for the defensins and 30 cycles for the actin; 72° C., 10 min; 14° C., infinity.
After amplification, the products are mixed at the rate of 3 μl of products of amplification of actin+6 μl of products of amplification of hBD2+6 μl of products of amplification of hBD3. 5 μl of a mixture of filler buffer and water (2/3) are added and the final 20 μl are deposited on a pre-poured 2% agarose gel. The samples migrate in 30 minutes and the bands are visualized under UV in a black chamber and are photographed digitally.
(§1) The photographs of the gels are analyzed by an image treatment software which quantifies the intensity of the bands. The ratios of intensity of the hBD2/actin and hBD3/actin bands are compared on the one hand between the monolayer model and the 3D model (reconstructed epidermis) in a non-stressed condition, and, on the other hand, following the effect of a stress (cells treated with TNFβ or IFNγ).

The subject of assay [2] is reconstructed epidermis (foreskin keratinocytes). The assay is described as follows: hBD2 and hBD3 expression (RT-PCR, band intensity vs actin) in 3D reconstructed epidermis. The settings on record: 100 ng/ml, 24 hours. The assay is classed as cell-based, human. The method, then:
At the end of experimentation, the reconstructed epidermis are treated in the following manner:
1 sample undergoes no treatment (model comprising reference cells=negative control).
1 sample undergoes no treatment with the actives but undergoes various types of stress at the end of culture (model comprising stressed cells=positive control), e.g. incubation in the presence of TNFα at 100 ng/ml, IFN γ100 ng/ml.
1 sample undergoes the treatment with the active (1% in the culture medium for 24 hours) and then a stress (equivalent to the positive control).
The RNAs are diluted at 5 ng/μl and are treated as described above.
as §1

“IFNγ: molecule mimicking a microbial attack, used as stress”: the “HBD2, ratio of intensity of the hBD2/actin bands” value is recorded as 0.450 in assay [1] and 0.581 in assay [2]. In addition, the entries for the “HBD3, ratio of intensity of the hBD3/actin bands” value in assay [1] and in assay [2] were 0.370 and 0.492, respectively.
For TNFα, in assay [1], the “HBD2, ratio of intensity of the hBD2/actin bands” value stood at 1.240 and the “HBD3, ratio of intensity of the hBD3/actin bands” value is listed as 0.266. In assay [2], the “HBD2, ratio of intensity of the hBD2/actin bands” value turned out to be 1.617 and the “HBD3, ratio of intensity of the hBD3/actin bands” value is on record as 0.546.

The record behind these values is US20040096815A1, “Method of identifying an eventual modification of at least one biological parameter making use of living cells which are subjected to a stress and living cells which are not subjected to this same stress” (COLETICA, priority 2002, published 2004).
